The text below walks through data of EP0488079A1, “Oxadiazolylmethylpurines, their preparation, and their pharmaceutical use” (CHINOIN Gyògyszer és Vegyészeti Termékek Gyára RT., priority 1990, dated 1992).

Where two headings read alike, the source gives them in different places.

Data set [1] has as its system durch elektrische Reizung des Nervus laryngeus Husten. Nature of the data set: Antitussive effect, cough induced in cats by electrical stimulation of the Nervus laryngeus. The data set is classed as in vivo, Katzen. As to conditions: for ED50: Felis catus, po, cough by electrical stimulation, p.o., p <0,001, read-out: ED₅₀ (±S.D.). An excerpt: Die hustenlindernde Wirkung der Verbindung Ia wurde an Katzen untersucht, an denen durch elektrische Reizung des Nervus laryngeus Husten ausgelöst worden war (R. Domenjoz, Arch. Exp. Path. 1952, 19). Die zu untersuchenden Verbindungen wurden i.v. beziehungsweise mit Schlundsonde p.o. verabreicht. […] Tabelle 1

For data set [2], the system named is durch einen 15 %-igen Citronensäurespray hervorgerufenem Husten. The experiment in a line: Antitussive effect, cough induced in guinea pigs by 15 % citric acid spray. The class given is in vivo, Meerschweinchen. The note with it: Cavia porcellus, po, 1 h, read-out: ED₅₀ (±S.D.). An excerpt: Die hustenlindernde Wirkung wurde auch an Meerschweinchen untersucht, an denen die Dämpfung des durch einen 15 %-igen Citronensäurespray ausgelösten Hustens bestimmt wurde (I. Erdély, L. Tardos, Arzneim. Forsch. 1966, 617). Die hustenlindernden Mittel wurden eine Stunde vor der Messung oral verabreicht. Auch in diesem Test erwies sich die Verbindung Ia als starkes Hustenlinderungsmittel; ihre Wirkung übertraf die der Referenzsubstanzen (Tabelle 2). Tabelle 2

The test system of data set [3] is Mäusen. Nature of the data set: Acute oral toxicity in mice. The note with it: p.o.
Data set [4] concerns isolierten glatten Luftröhrenmuskel des Meerschweinchens. Nature of the data set: Inhibition of the constrictor effect of histamine on isolated tracheal smooth muscle. The data set is classed as cell-based, Meerschweinchen. The note with it: against histamine, isolated guinea pig tracheal smooth muscle; for EC50: cumulative dose series, read-out: p d 2 (converted). An excerpt:
Am glatten Luftröhrenmuskel des Meerschweinchens ist die Wirkung der Verbindung Ia der des Theophyllins ähnlich, wenn die Wirkung gegen Histamin in einer kumulativen Dosisreihe untersucht wird (Tabelle 3). Tabelle 3

The subject of data set [5] is durch Histamin ausgelösten Anstiegs des Widerstands der Luftwege. Nature of the data set: Inhibition of the histamine-induced rise in airway resistance in cats. The data set is classed as in vivo, Katzen. The note with it: for Wirkungsmaximum: 3 µg/kg histamine i.v., 4 mg/kg substance intraduodenal, measured minute 10 to 120; for rel.Wirkungsstärke: relative to Theophyllin = 1,00. An excerpt: Die Hemmung des durch Histamin ausgelösten Anstiegs des Widerstands der Luftwege wurde an Katzen untersucht (M.A. Wassermann, D.W. Du Charme, Prostaglandins, 1977, 255).
Minute gemessen. […] Tabelle 4

For data set [6], the system named is sensibilisierten Meerschweinchen. The experiment in a line: Experimental asthma (anaphylaxis): airway resistance in ovalbumin-sensitised guinea pigs after intratracheal ovalbumin. The data set is classed as in vivo. The note with it: for δ (Änderung des Beatmungswiderstands): deviation from own value after dosing. Here is the method: Die Meerschweinchen wurden durch eine einmalige Gabe von 1 µg/kg Ovalbumin i.v. sensibilisiert (Andersson, Brattsand, Br. J. Pharmacol. 1982, 139) und bekamen nach 40 Tagen die zu untersuchenden Verbindungen in einer Dosis von 10 mg/kg i.v. Die narkotisierten, muskelrelaxierten und künstlich beatmeten Tiere erhielten 3 mg/kg Ovalbumin intratracheal, und zu unterschiedlichen Zeitpunkten wurde gemessen, wie stark die zu untersuchenden Verbindungen den Anstieg des Widerstandes der Luftwege zu kompensieren vermochten.
Nach Narkose Präparation und Verabreichung eines Muskelrelaxans Beatmung 1. Messung: 5 min nach Injizierung von 10 mg/kg Wirkstoff, dann intratracheale Provokation (Minute 0) 2. Messung: 3 min nach intratrachealer Provokation 3. Messung: 6 min nach intratrachealer Provokation 4. Messung: 12 min nach intratrachealer Provokation 5. Messung: 24 min nach intratrachealer Provokation.
Die Beatmung erfolgte mit positivem Druck bei einer Frequenz von 90/min und einem Volumen von 3 ml.
Die Kontrollgruppe erhielt physiologische Kochsalzlösung. Der Wert δ ist die Abweichung von dem eigenen, nach der Verabreichung der Dosis von 10 mg/kg Wirkstoff gemessenen Wert (Eigenkontrolle).

For data set [7], the system named is Zentralnervensystem und das Herz. Nature of the data set: Respiratory depression and side effects on central nervous system and heart. The data set is classed as in vivo.
A short description of the next data set: Water solubility. The data set is classed as physicochemical.
Data set [8] in a line: Absorption after oral administration. The data set is classed as in vivo. The note with it: without salt formation.
For data set [9], the system named is Mäusen. The note with it: in vivo.
Where [10] appears, read: 10 mg/kg i.v., 3 min after intratracheal ovalbumin.
Setting [11] is: 10 mg/kg i.v., 6 min after intratracheal ovalbumin.
Where [12] appears, read: 10 mg/kg i.v., 12 min after intratracheal ovalbumin.
Setting [13] is: 10 mg/kg i.v., 24 min after intratracheal ovalbumin.

Turning to `COc1ccc2c3c1O[C@H]1[C@@H](O)C=C[C@H]4[C@@H](C2)N(C)CC[C@@]341.Cl` [Codeïn HCl], the ED50 in [1] is 4.33 mg/kg; in [2] it was 12.8 mg/kg. The DL₅₀ with Mäusen [3] is recorded as 359,2 mg/kg.

As for `Cc1nc(Cn2cnc3[nH]c(=O)n(C)c(=O)c32)no1` [Verbindung Ia, 1-Methyl-7-(5-methyl-1,2,4-oxadiazol-3-yl)-methyl-3,7-dihydro-3H-purin-2,6-dion], the ED50 in data set [1] worked out at 3.74 mg/kg; in data set [2] (guinea pigs, 15 % citric acid spray, one hour after p.o. administration, p <0,001), 3.04 mg/kg. For the same molecule, the “hustenlindernde Wirkung” value in [1] (i.v. and p.o.) is “bedeutende hustenlindernde Wirkung”. Also, the “Zeitdauer der Wirkung” value in [1] (i.v. and p.o., compared with reference substances) is “länger als die der Referenzsubstanzen”. The EC50 in data set [4] is 3.31 µM. Moreover, in data set [4], the Emax – broadly, the maximal effect, on the per cent scale that the assay sets – was 36%. In addition, the Wirkungsmaximum in data set [5] is listed as 28,2. Moreover, in data set [5] (4 mg/kg intraduodenal, compared with Theophyllin), the “Dauer der Wirkung” value is “hielt längere Zeit an”. Further, the rel.Wirkungsstärke in data set [5] (4 mg/kg intraduodenal) is reported as 1,79. In addition, the “Beatmungswiderstand R” value in data set [6] (setting [10]) was 9,21±0,84 Pa/ml/s; in [6] (setting [11]), 9,41±0,91 Pa/ml/s; in data set [6] (setting [12]), 10,10±0,94 Pa/ml/s; in data set [6] (setting [13]), 9,92±1.11 Pa/ml/s; in data set [6] (nach 10 mg i.v. (5 min after injection, before intratracheal ovalbumin provocation)), 8,07±0,93 Pa/ml/s. The “δ (Änderung des Beatmungswiderstands)” value in [6] (setting [10]) was 1,14±0,77 Pa/ml/s; in data set [6] (setting [11]), 1,34±0,96 Pa/ml/s; in data set [6] (setting [12]) it was 2,03±0,44 Pa/ml/s; in data set [6] (setting [13]), 1,85±0,64 Pa/ml/s. The “atmungsdämpfende Wirkung” value in data set [7] (in contrast to the reference substances) was “keine atmungsdämpfende Wirkung”. Besides, in [7] (side effects characteristic of Theophyllin), the “unerwünschte Nebenwirkungen auf das Zentralnervensystem und das Herz” value is “nicht aufweist”. Further, the Wasserlöslichkeit result in “Water solubility” was “mäßigen Wasserlöslichkeit”. Also, in data set [8], the Resorption result was “ausgezeichnet und schnell resorbiert”. The “therapeutischer Index” value in the data set with Mäusen [9] is “um mehr als eine Größenordnung besser als der der Referenzsubstanzen”. Moreover, in the data set on Mäusen [9] (mouse, po), the DL₅₀ is recorded as more than 2000 mg/kg.

On to `Cn1c(=O)c2[nH]cnc2n(C)c1=O` [Theophyllin, reference compound], for which, in [4], the EC50 was 4.17 µM and the Emax was 44%. Moreover, the Wirkungsmaximum in data set [5] is listed as 15,7. The rel.Wirkungsstärke in data set [5] (4 mg/kg intraduodenal) is given as 1,00.

In the case of `COc1ccc2c(c1)[C@]13CCCC[C@@H]1[C@H](C2)N(C)CC3` [Dextromethorphan HBr], the ED50 in data set [2] came out at 5.26 mg/kg. Moreover, the DL₅₀ with Mäusen [3] is reported as 165,9 mg/kg.
